Test results taken from US20240360459A1 (Nankai University, priority 2023, published 2024).

Biological target: Mtb ATP synthase (Mycobacterium tuberculosis, UniProt P9WPS1+P9WPV7)
Assay: biochemical
Assay type: binding

COc1nc2ccc(Br)cc2cc1[C@@H](c1ccccc1)[C@@](O)(CCN(C)C)c1cccc2ccccc12 [bedaquiline]
Kd: 36.5 µM
